Publication PMC5218480 (PLoS ONE, 2017)

Test system: MV-4-11 cells
Assay: Gene expression microarray analysis (Affymetrix PrimeView) and GSEA
Format: cell-based, human
Parameters: RFU PODN (11730768_x_at) / Fold change /veh PODN (11730768_x_at) / RFU LINC00158 (11744669_a_at) / Fold change /veh LINC00158 (11744669_a_at) / RFU DUSP10 (11751237_a_at) / Fold change /veh DUSP10 (11751237_a_at) / RFU ID3 (11757404_x_at) / Fold change /veh ID3 (11757404_x_at) / RFU PLEKHG5 (11737974_s_at) / Fold change /veh PLEKHG5 (11737974_s_at) / RFU LRRC4B (11730491_at) / Fold change /veh LRRC4B (11730491_at) / RFU GIMAP4 (11747438_a_at) / Fold change /veh GIMAP4 (11747438_a_at) / RFU KRT8 (11758183_x_at) / Fold change /veh KRT8 (11758183_x_at) / RFU CNN1 (11734310_a_at) / Fold change /veh CNN1 (11734310_a_at) / RFU VPS37D (11726825_at) / Fold change /veh VPS37D (11726825_at) / RFU C10orf10 (11716522_x_at) / Fold change /veh C10orf10 (11716522_x_at) / RFU KIR2DL2 /// KIR2DL4 /// KIR2DL5A /// KIR2DL5B /// KIR2DS1 /// KIR2DS2 /// KIR2DS3 /// KIR2DS4 /// KIR3DL3 /// KIR3DL3 /// KIR3DS1 (11738374_at) / Fold change /veh KIR2DL2 /// KIR2DL4 /// KIR2DL5A /// KIR2DL5B /// KIR2DS1 /// KIR2DS2 /// KIR2DS3 /// KIR2DS4 /// KIR3DL3 /// KIR3DL3 /// KIR3DS1 (11738374_at) / RFU C1QL1 (11718748_at) / Fold change /veh C1QL1 (11718748_at) / RFU TMPRSS4 (11747572_a_at) / Fold change /veh TMPRSS4 (11747572_a_at) / RFU HAMP (11756126_x_at) / Fold change /veh HAMP (11756126_x_at) / RFU RNFT2 (11725882_a_at) / Fold change /veh RNFT2 (11725882_a_at) / RFU NR4A2 (11747474_a_at) / Fold change /veh NR4A2 (11747474_a_at) / RFU ABCC12 (11746883_a_at) / Fold change /veh ABCC12 (11746883_a_at) / RFU TMEM136 (11760407_x_at) / Fold change /veh TMEM136 (11760407_x_at) / RFU CLDN22 /// WWC2 (11732394_at) / Fold change /veh CLDN22 /// WWC2 (11732394_at) / RFU HLA-DPB1 (11760878_x_at) / Fold change /veh HLA-DPB1 (11760878_x_at) / RFU SPINT1 (11716480_a_at) / Fold change /veh SPINT1 (11716480_a_at) / RFU GAP43 (11754022_s_at) / Fold change /veh GAP43 (11754022_s_at) / RFU A4GNT (11735810_at) / Fold change /veh A4GNT (11735810_at) / RFU PRB3 (11715151_x_at) / Fold change /veh PRB3 (11715151_x_at) / RFU TUBB4B (11761932_at) / Fold change /veh TUBB4B (11761932_at) / RFU CAPN14 (11732068_a_at) / Fold change /veh CAPN14 (11732068_a_at) / RFU TMCC2 (11721928_a_at) / Fold change /veh TMCC2 (11721928_a_at) / RFU IRGQ (11745062_a_at) / Fold change /veh IRGQ (11745062_a_at) / RFU FAM174B (11720279_a_at) / Fold change /veh FAM174B (11720279_a_at) / RFU TMPRSS4 (11748680_a_at) / Fold change /veh TMPRSS4 (11748680_a_at) / RFU FAM212B (11763350_a_at) / Fold change /veh FAM212B (11763350_a_at) / RFU PLEKHG5 (11743358_a_at) / Fold change /veh PLEKHG5 (11743358_a_at) / RFU ZSCAN30 (11745921_a_at) / Fold change /veh ZSCAN30 (11745921_a_at) / RFU CMKLR1 (11741424_a_at) / Fold change /veh CMKLR1 (11741424_a_at) / RFU LOC101060620 /// MAPK8IP1 (11723275_at) / Fold change /veh LOC101060620 /// MAPK8IP1 (11723275_at) / RFU SPTSSB (11747773_x_at) / Fold change /veh SPTSSB (11747773_x_at) / RFU PRSS12 (11739890_at) / Fold change /veh PRSS12 (11739890_at) / RFU BIN1 (11741810_x_at) / Fold change /veh BIN1 (11741810_x_at) / RFU WNT11 (11732464_a_at) / Fold change /veh WNT11 (11732464_a_at) / RFU C10orf10 (11716521_a_at) / Fold change /veh C10orf10 (11716521_a_at) / RFU C5orf56 (11738089_at) / Fold change /veh C5orf56 (11738089_at) / RFU CYB561 (11721691_x_at) / Fold change /veh CYB561 (11721691_x_at) / RFU ANKRD19P (11752326_a_at) / Fold change /veh ANKRD19P (11752326_a_at) / RFU OR2T12 /// OR2T33 /// OR2T8 (11738714_s_at) / Fold change /veh OR2T12 /// OR2T33 /// OR2T8 (11738714_s_at) / RFU VCAN (11748164_a_at) / Fold change /veh VCAN (11748164_a_at) / RFU JSRP1 (11732532_at) / Fold change /veh JSRP1 (11732532_at) / RFU KRTAP10-11 (11738290_x_at) / Fold change /veh KRTAP10-11 (11738290_x_at) / RFU MYO3A (11730013_a_at) / Fold change /veh MYO3A (11730013_a_at) / RFU EBF3 (11725865_a_at) / Fold change /veh EBF3 (11725865_a_at) / RFU CAMK2N1 (11719241_x_at) / Fold change /veh CAMK2N1 (11719241_x_at) / RFU C5orf56 (11738088_a_at) / Fold change /veh C5orf56 (11738088_a_at) / RFU OLFML3 (11715873_a_at) / Fold change /veh OLFML3 (11715873_a_at) / RFU LOC100653217 /// NTM (11731650_a_at) / Fold change /veh LOC100653217 /// NTM (11731650_a_at) / RFU MAPK11 (11762145_a_at) / Fold change /veh MAPK11 (11762145_a_at) / RFU FIZ1 (11724087_x_at) / Fold change /veh FIZ1 (11724087_x_at) / RFU OASL (11726364_x_at) / Fold change /veh OASL (11726364_x_at) / RFU SOX15 (11748057_x_at) / Fold change /veh SOX15 (11748057_x_at) / RFU CD79A (11719716_a_at) / Fold change /veh CD79A (11719716_a_at) / RFU HIST1H1D (11736915_at) / Fold change /veh HIST1H1D (11736915_at) / RFU CASKIN2 (11723855_a_at) / Fold change /veh CASKIN2 (11723855_a_at) / RFU LOC730098 (11760151_x_at) / Fold change /veh LOC730098 (11760151_x_at) / RFU OR4N2 (11742367_at) / Fold change /veh OR4N2 (11742367_at) / RFU PRRT2 (11749266_a_at) / Fold change /veh PRRT2 (11749266_a_at) / RFU SNX32 (11753110_a_at) / Fold change /veh SNX32 (11753110_a_at) / RFU CDHR5 (11726645_a_at) / Fold change /veh CDHR5 (11726645_a_at) / RFU RCAN1 (11760418_a_at) / Fold change /veh RCAN1 (11760418_a_at) / RFU FAM167A (11723789_a_at) / Fold change /veh FAM167A (11723789_a_at) / RFU FAM26E (11764081_at) / Fold change /veh FAM26E (11764081_at) / RFU ISYNA1 (11749810_s_at) / Fold change /veh ISYNA1 (11749810_s_at) / RFU ACY1 (11761880_at) / Fold change /veh ACY1 (11761880_at) / RFU 11764098_at / Fold change /veh 11764098_at / RFU SAMD14 (11745864_x_at) / Fold change /veh SAMD14 (11745864_x_at) / RFU NPB (11741838_a_at) / Fold change /veh NPB (11741838_a_at) / RFU TMPRSS6 (11731388_a_at) / Fold change /veh TMPRSS6 (11731388_a_at) / RFU KRTAP10-2 (11738614_at) / Fold change /veh KRTAP10-2 (11738614_at) / RFU ARHGAP8 /// PRR5-ARHGAP8 (11727945_x_at) / Fold change /veh ARHGAP8 /// PRR5-ARHGAP8 (11727945_x_at) / RFU KRTAP5-7 /// NADSYN1 (11734609_at) / Fold change /veh KRTAP5-7 /// NADSYN1 (11734609_at) / RFU RASL12 (11751679_a_at) / Fold change /veh RASL12 (11751679_a_at) / RFU CDKN2B (11736163_a_at) / Fold change /veh CDKN2B (11736163_a_at) / RFU PRF1 (11729649_at) / Fold change /veh PRF1 (11729649_at) / RFU, ZNF638 /// ZNF638-IT1 / Fold change vs veh, ZNF638 /// ZNF638-IT1 / RFU, PANK3 / Fold change vs veh, PANK3 / RFU, SH3YL1 / Fold change vs veh, SH3YL1 / RFU, ZEB2 / Fold change vs veh, ZEB2 / RFU, NRIP1 / Fold change vs veh, NRIP1 / RFU, PTTG1IP / Fold change vs veh, PTTG1IP / RFU, CAPN2 / Fold change vs veh, CAPN2 / RFU, MED14 / Fold change vs veh, MED14 / RFU, SNORA58 / Fold change vs veh, SNORA58 / RFU, C1orf63 / Fold change vs veh, C1orf63 / RFU, LRRFIP1 / Fold change vs veh, LRRFIP1 / RFU, NDUFAF7 / Fold change vs veh, NDUFAF7 / RFU, SLC12A2 / Fold change vs veh, SLC12A2 / RFU, IBTK / Fold change vs veh, IBTK / RFU, ESF1 / Fold change vs veh, ESF1 / Fold change vs veh, TMEM50B / RFU, TAOK1 / Fold change vs veh, TAOK1 / RFU, ACBD3 / Fold change vs veh, ACBD3 / RFU, TMA16 / Fold change vs veh, TMA16 / RFU, RWDD3 / Fold change vs veh, RWDD3 / RFU, BCAT1 / Fold change vs veh, BCAT1 / RFU, EDEM3 / Fold change vs veh, EDEM3 / RFU, TMEM33 / Fold change vs veh, TMEM33 / RFU, WDR75 / Fold change vs veh, WDR75 / RFU, AHCTF1 / Fold change vs veh, AHCTF1 / RFU, TFRC / Fold change vs veh, TFRC / RFU, ZDHHC17 / Fold change vs veh, ZDHHC17 / RFU, NOM1 / Fold change vs veh, NOM1 / RFU, ARL8B / Fold change vs veh, ARL8B / RFU, ZBTB11 / Fold change vs veh, ZBTB11 / RFU, TAMM41 / Fold change vs veh, TAMM41 / RFU, KIAA1704 /// LOC100996395 / Fold change vs veh, KIAA1704 /// LOC100996395 / RFU, ING1 / Fold change vs veh, ING1 / RFU, TRMT61B / Fold change vs veh, TRMT61B / RFU, FUBP3 / Fold change vs veh, FUBP3 / RFU, TP53 / Fold change vs veh, TP53 / RFU, TNKS2 / Fold change vs veh, TNKS2 / RFU, ZFP14 / Fold change vs veh, ZFP14 / RFU, ACTR2 / Fold change vs veh, ACTR2 / RFU, PPP3R1 / Fold change vs veh, PPP3R1 / RFU, PIK3R1 / Fold change vs veh, PIK3R1 / RFU, HNRNPA1 / Fold change vs veh, HNRNPA1 / RFU, RNF170 / Fold change vs veh, RNF170 / RFU, ZNF28 / Fold change vs veh, ZNF28 / RFU, RNGTT / Fold change vs veh, RNGTT / RFU, OGT / Fold change vs veh, OGT / RFU, BRD1 / Fold change vs veh, BRD1 / RFU, MARS / Fold change vs veh, MARS / RFU, ZNF655 / Fold change vs veh, ZNF655 / RFU, FAHD1 / Fold change vs veh, FAHD1 / RFU, BDP1 / Fold change vs veh, BDP1 / RFU, LRRCC1 / Fold change vs veh, LRRCC1 / RFU, ARID1A / Fold change vs veh, ARID1A / RFU, ZNF146 / Fold change vs veh, ZNF146 / RFU, ZNF330 / Fold change vs veh, ZNF330 / RFU, GPN3 / Fold change vs veh, GPN3 / RFU, C9orf123 / Fold change vs veh, C9orf123 / RFU, N4BP2L2 / Fold change vs veh, N4BP2L2 / RFU, ARFIP1 / Fold change vs veh, ARFIP1 / RFU, FAM179B / Fold change vs veh, FAM179B / RFU, BCL10 / Fold change vs veh, BCL10 / RFU, UHRF1BP1L / Fold change vs veh, UHRF1BP1L / RFU, BET1 / Fold change vs veh, BET1 / RFU, CNOT2 / Fold change vs veh, CNOT2 / RFU, ZNF268 / Fold change vs veh, ZNF268 / Fold change vs veh, ZNF507 / RFU, DGCR2 / Fold change vs veh, DGCR2 / RFU, WDSUB1 / Fold change vs veh, WDSUB1 / Fold change vs veh, HSP90B1 /// MIR3652 / RFU, ADSS / Fold change vs veh, ADSS / RFU, GK / Fold change vs veh, GK / RFU, ZNF148 / Fold change vs veh, ZNF148 / RFU, TAF9 / Fold change vs veh, TAF9 / RFU, SLC1A5 / Fold change vs veh, SLC1A5 / RFU, SLMO2 / Fold change vs veh, SLMO2 / RFU, ABCC4 / Fold change vs veh, ABCC4 / RFU, LOC101060439 /// RAP1B / Fold change vs veh, LOC101060439 /// RAP1B / RFU, RFX7 / Fold change vs veh, RFX7 / RFU, GTPBP10 / Fold change vs veh, GTPBP10 / RFU, CNEP1R1 / Fold change vs veh, CNEP1R1 / RFU, BIVM-ERCC5 /// ERCC5 / Fold change vs veh, BIVM-ERCC5 /// ERCC5 / RFU, ILF3 / Fold change vs veh, ILF3 / RFU 11762660_at / Fold change /veh 11762660_at / RFU VCAN (11757783_s_at) / Fold change /veh VCAN (11757783_s_at) / RFU DDX43 (11728927_at) / Fold change /veh DDX43 (11728927_at) / RFU KRT8 (11758188_x_at) / Fold change /veh KRT8 (11758188_x_at) / RFU NKD1 (11759106_at) / Fold change /veh NKD1 (11759106_at) / RFU SRD5A1 (11742802_a_at) / Fold change /veh SRD5A1 (11742802_a_at) / RFU TPSAB1 /// TPSB2 (11721975_s_at) / Fold change /veh TPSAB1 /// TPSB2 (11721975_s_at) / RFU GSTM3 (11746129_a_at) / Fold change /veh GSTM3 (11746129_a_at) / RFU IL23R (11737362_x_at) / Fold change /veh IL23R (11737362_x_at) / RFU TMEM51 (11727254_a_at) / Fold change /veh TMEM51 (11727254_a_at) / RFU PIWIL2 (11732686_x_at) / Fold change /veh PIWIL2 (11732686_x_at) / RFU ORM1 (11744905_x_at) / Fold change /veh ORM1 (11744905_x_at) / RFU CCDC152 (11743942_at) / Fold change /veh CCDC152 (11743942_at) / RFU ECM1 (11717891_a_at) / Fold change /veh ECM1 (11717891_a_at) / RFU IL23R (11748794_a_at) / Fold change /veh IL23R (11748794_a_at) / RFU TNFAIP8L3 (11732012_x_at) / Fold change /veh TNFAIP8L3 (11732012_x_at) / RFU MBOAT4 (11741988_at) / Fold change /veh MBOAT4 (11741988_at) / RFU 11764193_at / Fold change /veh 11764193_at / RFU TMEM53 (11763286_at) / Fold change /veh TMEM53 (11763286_at) / RFU MAGEB2 (11727129_at) / Fold change /veh MAGEB2 (11727129_at) / RFU TMEM200A (11744735_a_at) / Fold change /veh TMEM200A (11744735_a_at) / RFU CCDC152 (11751479_a_at) / Fold change /veh CCDC152 (11751479_a_at) / RFU FAM211A (11726209_a_at) / Fold change /veh FAM211A (11726209_a_at) / RFU RGS16 (11746705_a_at) / Fold change /veh RGS16 (11746705_a_at) / RFU VCAN (11755009_s_at) / Fold change /veh VCAN (11755009_s_at) / RFU RHOB (11743442_s_at) / Fold change /veh RHOB (11743442_s_at) / RFU RGS16 (11720943_a_at) / Fold change /veh RGS16 (11720943_a_at) / RFU RGS16 (11720944_at) / Fold change /veh RGS16 (11720944_at) / RFU, VPS4B / Fold change vs veh, VPS4B / RFU, CREB1 / Fold change vs veh, CREB1 / RFU, DNAJC13 / Fold change vs veh, DNAJC13 / RFU, GNAQ / Fold change vs veh, GNAQ / RFU, CDK5R1 / Fold change vs veh, CDK5R1 / RFU, ZRANB3 / Fold change vs veh, ZRANB3 / RFU, CUL4A / Fold change vs veh, CUL4A / RFU, CCNY / Fold change vs veh, CCNY / RFU, UFL1 / Fold change vs veh, UFL1 / RFU, COG3 / Fold change vs veh, COG3 / RFU, DIAPH2 / Fold change vs veh, DIAPH2 / RFU, SKA2 / Fold change vs veh, SKA2 / RFU, AFF3 / Fold change vs veh, AFF3 / RFU, LMF1 / Fold change vs veh, LMF1 / RFU, IPO11 / Fold change vs veh, IPO11 / RFU, DFFB / Fold change vs veh, DFFB / RFU, FOXP1 / Fold change vs veh, FOXP1 / RFU, CARD8 / Fold change vs veh, CARD8 / RFU, STRN3 / Fold change vs veh, STRN3 / RFU, ADK / Fold change vs veh, ADK / RFU, RASSF2 / Fold change vs veh, RASSF2 / RFU, WIPF1 / Fold change vs veh, WIPF1 / RFU, LARP1B / Fold change vs veh, LARP1B / RFU, RASA1 / Fold change vs veh, RASA1 / RFU, RB1 / Fold change vs veh, RB1 / RFU, PPFIA1 / Fold change vs veh, PPFIA1 / RFU, MAT2A / Fold change vs veh, MAT2A / RFU, CCT5 / Fold change vs veh, CCT5 / RFU, WDR92 / Fold change vs veh, WDR92 / RFU, CUX1 / Fold change vs veh, CUX1 / RFU, TTC7A / Fold change vs veh, TTC7A / RFU, TMEM135 / Fold change vs veh, TMEM135 / RFU, DEPTOR / Fold change vs veh, DEPTOR / RFU, CPM / Fold change vs veh, CPM / RFU, DNAJB6 / Fold change vs veh, DNAJB6 / RFU, CACNA2D3 / Fold change vs veh, CACNA2D3 / RFU, DTX4 / Fold change vs veh, DTX4 / RFU, TFCP2 / Fold change vs veh, TFCP2 / RFU, GMCL1 /// GMCL1P1 / Fold change vs veh, GMCL1 /// GMCL1P1 / RFU, AEBP2 / Fold change vs veh, AEBP2 / RFU, SNHG1 /// SNORD22 /// SNORD25 /// SNORD26 /// SNORD27 /// SNORD28 /// SNORD29 /// SNORD31 / Fold change vs veh, SNHG1 /// SNORD22 /// SNORD25 /// SNORD26 /// SNORD27 /// SNORD28 /// SNORD29 /// SNORD31 / Fold change (Aza/veh), C12orf56 (ProbeSet 11735607_a_at) / Fold change (ACY-1035/veh), C12orf56 (ProbeSet 11735607_a_at) / Fold change (Aza/veh), FGFR1OP (ProbeSet 11751329_s_at) / Fold change (ACY-1035/veh), FGFR1OP (ProbeSet 11751329_s_at) / Fold change (Aza/veh), VPS36 (ProbeSet 11739960_a_at) / Fold change (ACY-1035/veh), VPS36 (ProbeSet 11739960_a_at) / RFU SYPL1 (11715823_x_at) / Fold change /veh SYPL1 (11715823_x_at) / RFU IGFBP7 (11715501_s_at) / Fold change /veh IGFBP7 (11715501_s_at) / RFU REEP3 (11722064_at) / Fold change /veh REEP3 (11722064_at) / RFU IGLL1 (11728026_x_at) / Fold change /veh IGLL1 (11728026_x_at): dose or concentration left out as unconfirmed
Settings: MV-4-11 cells, 48 hours

Nc1ccc(-c2cccs2)cc1NC(=O)c1ccc2c(c1)cc(C1CC1)n2CCN1CCOCC1 [ACY-1035]
Fold change /veh FAM26E (11764081_at): 0.88
